Data reported in PMC4727756 (Journal of analytical & bioanalytical techniques, 2015).

Assays:
[1] = in vitro; format: in vitro ADME
Method: Short-term stabilities were also determined for post-preparation QC standards stored at room temperature for 10 hours. The QC results obtained after storage were compared with spiked concentration values by determining the percentage ratios of experimental values divided by spiked values.

[2] = stability of stock and working solutions (LC-MS/MS); format: physicochemical; details: stored at 4°C for at least 6 months
Method: The stabilities of stock and working solutions for both analyte and internal standard were also evaluated. Stock solutions of analyte and IS were stored at −20°C for 9 months.

recovery at 8 h, 1.25 ng/mL ([1]; rat plasma QC samples, rat plasma, bench top (8 hr) at room temp, 1.25 ng/ml) | recovery at 8 h, 80 ng/mL ([1]; rat plasma QC samples, rat plasma, bench top (8 hr) at room temp, 80.00 ng/ml) | recovery at 3 days, 1.25 ng/mL ([1]; rat plasma QC samples, rat plasma, freeze thaw (3 cycles), 1.25 ng/ml) | recovery at 3 days, 80 ng/mL ([1]; rat plasma QC samples, rat plasma, freeze thaw (3 cycles), 80.00 ng/ml) | recovery at 10 h, 1.25 ng/mL ([1]; rat, post-extraction (post-preparation) rat plasma QC samples, post extraction (10 hr) at room temp, 1.25 ng/ml) | recovery at 10 h, 80 ng/mL ([1]; rat, post-extraction (post-preparation) rat plasma QC samples, post extraction (10 hr) at room temp, 80.00 ng/ml) | stability of working solutions ([2]; two QC standards (1.25 and 80 ng/mL)) | stability of working solutions ([2]; 7.5 ng/mL IS) | SMILES
103% | 103% | 98.1% | 105% | 102% | 108% | 99.60–105.00% | – | Cc1ccc(C)c(COc2cc(NC(=O)c3cc(C(F)(F)F)cc(C(F)(F)F)c3)ccc2N(C)S(C)(=O)=O)c1 [BMCL26]
– | – | – | – | – | – | – | 115.60% | Cc1ccc(C)c(COc2cc(NC(=O)C3CCCCC3)ccc2N(C)S(C)(=O)=O)c1 [JCC76, N-(3-(2,5-dimethylbenzyloxy)-4-(methylmethylsulfonamido)phenyl)cyclohexanecaboxamide, reference compound]
